Reference: patent US20230413819A1, “METHODS FOR CONTROLLING FLEA AND TICK INFESTATIONS IN A MAMMAL” (In the Bowl Animal Health, Inc., priority 2021, published 2023)

Assays:
[1] = tested on: C. felis; assay: Efficacy of spinosyn in medicated feed dosed at 0.5 mg/kg, comb counts of live adult fleas (Example 3); type: in vivo; conditions: dogs
Description: Methods: A pool of dogs are to be preliminarily infested with ˜100 unfed adult C. felis in order to produce a pool of 18 dogs that can suitably sustain a reliable infestation rate of approximately 50% of live fleas over a 48-hour period. The dogs with the highest live flea counts are to be randomly allocated to 3 groups (6 dogs per group) based on their pre-treatment flea counts from experimental infestations. The first treatment group is to be the control group and groups 2-3 are to be the test groups.
The dogs are to be housed individually during the study period and are to have ad libitum access to water.
There is to be an initial acclimation period of at least 4 days during which dogs in test groups 2 and 3 are to be transitioned from a standard certified commercial chow to an unmedicated version of the daily feed. During the acclimation period, the dogs are to be allowed 1 hour to consume the feed, after which the dogs' acceptance of the feed will be observed and recorded.
Dogs in the control group are not to receive a spinosyn or any other flea control treatment. On days 0-29, each dog in test groups 2 and 3 is to be offered its daily feed containing spinosyn for a period of 1 hour. On days 30-37 all dogs will be given regular dog food, without spinosyn, or a physiologically acceptable derivative thereof […]

[2] = tested on: Ctenocephalides felis; assay: Efficacy of spinosyn per os to dogs against Ctenocephalides felis, comb counts of live adult fleas (Example 2); type: in vivo; conditions: for percent reduction in live adult flea counts: by the day 14 comb count
Description: Methods: A pool of 40 dogs are to be preliminarily infested with ˜100 unfed adult C. felis in order to produce a pool of dogs that can suitably sustain a reliable infestation rate of approximately 50% of live fleas over a 48-hour period. The dogs with the highest live flea counts are to be randomly allocated to 4 treatment groups (6 dogs per group) based on their pre-treatment flea counts from experimental infestations. The first treatment group is to be the control group and groups 2-4 are to be the test groups.
The dogs are to be housed individually during the study period and are to be fed a commercial dry dog food ration with ad libitum access to water.
Dogs in the control group are not to receive a spinosyn or any other flea control treatment. Each dog in test groups 2-4 is to be offered its daily ration (dry food) and the individual doses of liquid formulation are to be administered after the individual dog has eaten at least 25% of its total daily ration. After receiving the dose of a spinosyn the dogs are to be allowed to continue eating. This mimics incorporating the spinosyn in feed. Each dog in test groups 2-4 and the control group is to be experimentally infested with 100 unfed adult fleas on test days −1, 5, 12, 19, 28 and 35. Comb counts for live adult fleas are to be conducted on days 2, 7, 14, 21, 30 and 37. The final experimental infestation is to occur five days after the last daily dose of spinosyn.

Substance: spinosad
- efficacy (reduction in live adult flea counts) ([1]; Group 2, 0.5 mg/kg daily feed formulation 1, by the 14-day comb count): over 90%
- efficacy (reduction in live adult flea counts) ([1]; Group 3, 0.5 mg/kg daily feed formulation 2, by the 14-day comb count): over 90%
- percent reduction in live adult flea counts ([2]; Group 2, 0.25 mg/kg daily oral): 100%
- efficacy (reduction in live adult flea counts) ([2]; Group 3, 0.50 mg/kg daily oral days 0-29, day 37, after wash out period): over 98%
- percent reduction in live adult flea counts ([2]; Group 3, 0.50 mg/kg daily oral): 100%
- efficacy (reduction in live adult flea counts) ([2]; Group 4, 1.0 mg/kg daily oral days 0-29, day 37, after wash out period): over 98%
- percent reduction in live adult flea counts ([2]; Group 4, 1.0 mg/kg daily oral): 100%
